Assay [1] can be described thus: Agonist activity at human D3 receptor expressed in HEK293 cells assessed as stimulation of mitogenesis.
Assay [2] can be described thus: Antagonist activity at human D3 receptor expressed in HEK293 cells assessed as inhibition of quinpirole-stimulated mitogenesis.

For `O=C(NCCC(O)CN1CCN(c2cccc(Cl)c2Cl)CC1)c1cc2cc(I)ccc2o1` (centres undefined), in assay [1], the EC50 stood at 0.084 µM.
For the compound `COc1ccc2[nH]c(C(=O)NCCC(O)CN3CCN(c4cccc(Cl)c4Cl)CC3)cc2c1` (centres undefined), the IC50 in assay [2] was 0.00151 µM.
Turning to `COc1ccccc1N1CCN(CC(O)CCNC(=O)c2cc3ccccc3s2)CC1` (centres undefined), the IC50 in assay [2] came to 0.0391 µM.
Regarding `COc1ccc2[nH]c(C(=O)NCCC(O)CN3CCN(c4ccccc4OC)CC3)cc2c1` (centres undefined), in assay [2], the IC50 stood at 0.00158 µM.
`COc1ccccc1N1CCN(CCCCNC(=O)c2cc3cc(I)ccc3o2)CC1` [5-Iodo-benzofuran-2-carboxylic acid {4-[4-(2-methoxy-phenyl)-piperazin-1-yl]-butyl}-amide]: the IC50 in assay [2] was 0.0229 µM.
The same measure, in the same setting: as for `O=C(NCCC(O)CN1CCN(c2cccc(Cl)c2Cl)CC1)c1cc2cc(I)ccc2[nH]1` (centres undefined), the figure is 0.038 µM.
As to `O=C(NCC(O)CCN1CCN(c2cccc(Cl)c2Cl)CC1)c1cc2ccccc2[nH]1` (centres undefined), in assay [2], the concentration for half-maximal inhibition (IC50) stood at 0.0257 µM.
With `COc1ccccc1N1CCN(C/C=C/CNC(=O)c2cc3ccccc3s2)CC1`, the IC50 in assay [2] is 0.00109 µM.
As for `COc1ccccc1N1CCN(CC(O)CCNC(=O)c2cc3ccccc3[nH]2)CC1` (centres undefined), in assay [2], the half-maximal inhibitory concentration (IC50) turned out to be 0.0121 µM.
Still for that read-out and setting: as for `COc1ccccc1N1CCN(CC(O)CCNC(=O)c2cc3cc(I)ccc3[nH]2)CC1` (centres undefined), the figure is 0.173 µM; as for `COc1ccccc1N1CCN(CCCCNC(=O)c2cc3ccccc3o2)CC1` [Benzofuran-2-carboxylic acid {4-[4-(2-methoxy-phenyl)-piperazin-1-yl]-butyl}-amide], 0.00239 µM.
As to `COc1ccccc1N1CCN(CC(O)CCNC(=O)c2cc3cc(I)ccc3o2)CC1` (centres undefined), the IC50 in assay [2] turned out to be 0.0145 µM.
`COc1ccccc1N1CCN(CC(O)CCNC(=O)c2cc3ccccc3o2)CC1` (centres undefined): the IC50 in assay [2] worked out at 0.0112 µM.
With `O=C(NC/C=C/CN1CCN(c2cccc(Cl)c2Cl)CC1)c1cc2ccccc2[nH]1`, the half-inhibitory concentration (IC50) in assay [2] was determined as 0.007 µM.
On to `COc1ccccc1N1CCN(C/C=C/CNC(=O)c2cc3ccccc3o2)CC1`, for which, in assay [2], the IC50 came out at 0.0149 µM.
For `COc1ccccc1N1CCN(CC(O)CCNC(=O)c2cc3cc(F)ccc3[nH]2)CC1` (centres undefined), the 50% inhibitory concentration (IC50) in assay [2] worked out at 0.00176 µM.
In the case of `CCCOc1ccccc1N1CCN(CC(O)CCNC(=O)c2cc3ccccc3[nH]2)CC1` (centres undefined), the IC50 in assay [2] stood at 0.00651 µM.
Turning to `COc1ccccc1N1CCN(CCCCNC(=O)c2cc3ccccc3s2)CC1` [Benzo[b]thiophene-2-carboxylic acid {4-[4-(2-methoxy-phenyl)-piperazin-1-yl]-butyl}-amide], the IC50 in assay [2] stood at 0.00022 µM.
On to `O=C(NCCC(O)CN1CCN(c2cccc(Cl)c2Cl)CC1)c1cc2ccccc2o1` (centres undefined), for which the EC50 in assay [1] was 0.0228 µM.

The values are drawn from BindingDB's records for doi:10.1021/jm900095y (National Institute On Drug Abuse-Intramural Research Program, 2009).
